# Results published in patent publication US20020039778A1, “Isolated and purified DNA molecule and protein for the degradation of triazine compounds” (Regents of the University of Minnesota, priority 1995, published 2002).
# Experiments:
# [1] = biological target: T1, atrazine chlorohydrolase (AtzA) (Pseudomonas sp., UniProt P72156); test: Enzyme kinetics of purified AtzA (HPLC)
# Description: (§2) Enzyme Kinetics. […] The reactions were stopped by boiling the reaction tubes at specific times, the addition of 500 μl acetonitrile and rapid freezing at −80° C. Thawed samples were centrifuged at 14,000 rpm for 10 minutes, the supernatants were filtered through a 0.2 μM filter, and placed into crimp-seal HPLC vials. HPLC analysis was done as described above.
# [2] = test system: B. japonicum strain USDA 123 (pMD1); test: Atrazine degradation by Bradyrhizobium japonicum carrying pMD1 (plate clearing, HPLC); type: cell-based
# Description: Atrazine degradation gene expressed in Bradyrhizobium japonicum. […] The pMD1 was transferred from E. coli DH5α (pMD1) to B. japonicum strains USDA 123 by conjugation. This was done by using helper plasmid pRK2073 and the triparental mating procedure of Leong et al., J. Bio. Chem, 257, 8724-8730 (1982). This was done using a modified patch mating technique. Equal quantities of E. coli DH5α (pMD1), […] and spread to the size of a nickel. The patch was incubated for 4 days at 28° C. and the resulting bacterial growth was removed from the pate, serially diluted in 0.85% NaCl plus 0.01% tween 80, and spread onto the surface of minimal AG plates (Ag without yeast extract) containing 60 μg/ml tetracycline. Plates were incubated for 2 weeks at 28° C. […] Atrazine degradation was verified by HPLC analysis. The identity of transconjugants was verified by using strain specific fluorescent antibodies prepared according to Schmidt et al., J. Bacteriol., 95, 1987-1992 (1968).
# [3] = biological target: T2, N-ethylammeline chlorohydrolase (TrzA) (Gordonia rubripertincta, UniProt Q52725); conditions: cited from earlier work
# T2 sequence (Q52725 1-477): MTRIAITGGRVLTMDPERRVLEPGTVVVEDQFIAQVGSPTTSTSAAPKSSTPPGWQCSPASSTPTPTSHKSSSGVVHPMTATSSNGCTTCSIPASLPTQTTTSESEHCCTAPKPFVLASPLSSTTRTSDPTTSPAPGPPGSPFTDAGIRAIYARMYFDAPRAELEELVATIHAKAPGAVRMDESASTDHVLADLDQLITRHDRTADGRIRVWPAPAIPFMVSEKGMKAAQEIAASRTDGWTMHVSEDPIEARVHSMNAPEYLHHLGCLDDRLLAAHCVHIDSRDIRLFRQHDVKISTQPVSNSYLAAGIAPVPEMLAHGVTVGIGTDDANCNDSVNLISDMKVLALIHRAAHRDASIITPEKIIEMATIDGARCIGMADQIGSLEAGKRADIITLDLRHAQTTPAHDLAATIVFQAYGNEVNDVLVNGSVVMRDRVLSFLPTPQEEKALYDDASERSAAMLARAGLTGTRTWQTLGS
# [4] = biological target: T1, atrazine chlorohydrolase (AtzA); test: Substrate range of purified AtzA in vitro; type: biochemical, Pseudomonas sp. strain ADP; parameters: made in house; host or cells: E. coli transformed with pMD4 (1.9-kb AvaI genomic fragment in pACYC184); conditions: purified enzyme in vitro
# Description: High performance liquid chromatography (HPLC) analysis was performed using a Hewlett-Packard HP 1090 Liquid Chromatograph system equipped with a photodiode array detector and interfaced to an HP 79994A Chemstation. […] Linear gradients of 0-6 minutes, 10-25% acetonitrile (ACN); 6-21 minutes, 25-65% ACN; 21-23 minutes, 65-100% ACN; and 23-25 minutes 100% ACN, were used. Spectral data of the column eluent was acquired between 200-400 nm (12 nm bandwidth per channel) at a sampling frequency of 640 milliseconds. Spectra were referenced against a signal at 550 nm.
# The solution was loaded onto a Mono Q HR 16/10 Column (Pharmacia LKB Biotechnology, Uppsala, Sweden). The column was washed with 25 mM MOPS buffer (pH 6.9), and the protein was eluted with a 0-0.5 M KCl gradient. Protein eluting from the column was monitored at 280 nm by using a Pharmacia U.V. protein detector. Pooled fractions containing the major peak were dialyzed overnight against 1 liter 25 mM MOPS buffer (pH 6.9). The dialyzed material was assayed for atrazine degradation ability by using HPLC analysis (see above) and analyzed for purity by sodium dodecyl sulfate (SDS) polyacrylamide gel electrophoreses (Laemlli).
# The AtzA protein was examined for its ability to degrade various triazine compounds in vitro.
# [5] = test system: E. coli DH5α (pMD1 or pMD2); test: Effect of simple nitrogen sources on atrazine degradation (plate clearing); type: cell-based, Escherichia coli
# Description: (§1) Analytical methods: plate assays, high performance liquid chromatography (HPLC), thin layer chromatography (TLC), and liquid-liquid partitioning analyses. Atrazine or hydroxyatrazine were incorporated in solid LB or minimal medium, as described in Mandelbaum et al., Appl. Environ. Microbiol., 61, 1451-1457 (1995), at a final concentration of 500 μg/ml to produce an opaque suspension of small particles in the clear agar. The degradation of atrazine or hydroxyatrazine by wild-type and recombinant bacteria was indicated by a zone of clearing surrounding colonies.
# [6] = test system: Pseudomonas species strain ADP; test: as above; type: cell-based; conditions: solid media with 500 ppm atrazine, 2 weeks of incubation at 28° C. or 37° C.
# Description: as §1
# [7] = test system: CCNc1nc(Cl)nc(NC(C)C)n1; test: purified protein, by the assay type; conditions: other: purified AtzA 50 μg/ml, 25 mM MOPS pH 6.9, room temperature
# Description: as §2
# [8] = protein concentration of 50 mg/liter
# T1 sequence (P72156 whole entry): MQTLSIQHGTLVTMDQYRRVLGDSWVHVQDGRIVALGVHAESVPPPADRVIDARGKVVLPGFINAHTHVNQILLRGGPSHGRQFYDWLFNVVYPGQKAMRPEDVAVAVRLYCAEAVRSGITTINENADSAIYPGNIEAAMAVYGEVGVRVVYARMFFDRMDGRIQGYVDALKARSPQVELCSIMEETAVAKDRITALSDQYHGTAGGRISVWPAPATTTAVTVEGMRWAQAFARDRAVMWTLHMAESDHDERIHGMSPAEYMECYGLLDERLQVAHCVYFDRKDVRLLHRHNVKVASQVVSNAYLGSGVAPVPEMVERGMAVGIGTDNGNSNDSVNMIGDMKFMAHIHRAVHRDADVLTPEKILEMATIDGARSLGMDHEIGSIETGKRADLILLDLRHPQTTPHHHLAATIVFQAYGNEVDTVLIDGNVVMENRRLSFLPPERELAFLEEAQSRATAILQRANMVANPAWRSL
compound,measurement,setting,value
"CCNc1nc(Cl)nc(NC(C)C)n1 [Atrazine, 2-chloro-4-ethylamino-6-isopropylamino-1,3,5-s-triazine]",time to degrade about 100 μM of atrazine to about 1 μM,[1]; [8],about 1.35 hours
same,time to degrade about 30 ppm of atrazine to about 3 ppb,[1]; [8],about 2.6 hours
same,Km,"[1]; read-out: Km of AtzA for atrazine, purified AtzA 50 μg/ml, 25 mM MOPS pH 6.9, room temperature",125 µM
same,time to clear atrazine on plates,[2]; AG media plates containing up to 500 ppm atrazine,10 days
same,atrazine in overnight culture broth by HPLC,[2]; supplied atrazine 33 ppm,no atrazine detectable
same,Degradation of substrate by TrzA,[3],does not degrade
"CCNc1nc(N)nc(Cl)n1 [Desisopropylatrazine, 2-chloro-4-ethylamino-6-amino-s-triazine]",Degradation of substrate by TrzA,[3],ability to dechlorinate
same,Km,[3]; reported for the related triazine hydrolase TrzA,82 µM
same,Degradation of substrate by AtzA,[4]; listed as deisopropylatrazine,ability to dechlorinate
"Nc1nc(N)nc(N)n1 [Melamine, 2,4,6-triamino-s-triazine]",Degradation of substrate by AtzA,[4],not substrates
same,Degradation of substrate by AtzA,[4]; listed as melamine,does not degrade
"CCNc1nc(Cl)nc(NCC)n1 [Simazine, 2-chloro-4,6-diethylamino-s-triazine]",Degradation of substrate by TrzA,[3],does not degrade
"CCNc1nc(Cl)nc(NC(C)(C)C)n1 [Tertbutylazine, 2-chloro-4-ethylamino-6-terbutylamino-s-triazine]",Degradation of substrate by AtzA,[4],not substrates
Cl.N [ammonium chloride],"tolerance for ammonium chloride with concomitant atrazine degradation, relative to wild-type",[5]; E. coli DH5α (pMD1 or pMD2) vs Pseudomonas strain ADP,40-80 fold
same,ammonium chloride concentration in whose presence atrazine degradation (clearing) was observed,[5]; solid media with 500 ppm atrazine,≤ 48 mM
same,ammonium chloride concentration sufficient to inhibit visible clearing of atrazine,[6],0.6 to 1.2 mM
atrazine chlorohydrolase (AtzA) (Pseudomonas sp. ADP),Km,[7],125 µM
